Data: PubChem BioAssay (NCI)
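Growth conditions: 96-well plates. Treatment: test compound, 48 hours, 5 concentrations. Analysis: linear interpolation between bracketing concentrations; unreached endpoints set to highest concentration. TGI: total growth inhibition.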

Key:
Experiment in all cases: inhibition of tumour cell growth, NCI panel, 48 h
RPMI-8226 leukemia = tested on: RPMI-8226 leukemia
TK-10 renal = tested on: TK-10 renal
LXFL 529 NSCLC = tested on: LXFL 529 NSCLC
HCC-2998 colon = tested on: HCC-2998 colon
UACC-257 melanoma = tested on: UACC-257 melanoma
OVCAR-8 ovarian = tested on: OVCAR-8 ovarian
HOP-92 NSCLC = tested on: HOP-92 NSCLC
A549 NSCLC = tested on: A549 NSCLC
M19-MEL melanoma = tested on: M19-MEL melanoma
LOX IMVI melanoma = tested on: LOX IMVI melanoma
MOLT-4 leukemia = tested on: MOLT-4 leukemia
KM20L2 colon = tested on: KM20L2 colon
NCI-H23 lung = tested on: NCI-H23 lung
SK-MEL-5 melanoma = tested on: SK-MEL-5 melanoma
OVCAR-3 ovarian = tested on: OVCAR-3 ovarian
DMS 273 small cell lung = tested on: DMS 273 small cell lung
HT29 colon = tested on: HT29 colon
MALME-3M melanoma = tested on: MALME-3M melanoma
DMS 114 small cell lung = tested on: DMS 114 small cell lung
HCT-15 colon = tested on: HCT-15 colon
SF-295 CNS = tested on: SF-295 CNS
SNB-19 CNS = tested on: SNB-19 CNS
OVCAR-4 ovarian = tested on: OVCAR-4 ovarian
SNB-78 CNS = tested on: SNB-78 CNS
COLO 205 colon = tested on: COLO 205 colon
SN12C renal = tested on: SN12C renal
A498 renal = tested on: A498 renal
SK-MEL-2 melanoma = tested on: SK-MEL-2 melanoma
HOP-62 NSCLC = tested on: HOP-62 NSCLC
SK-MEL-28 melanoma = tested on: SK-MEL-28 melanoma
M14 melanoma = tested on: M14 melanoma
U251 CNS = tested on: U251 CNS
HL-60(TB) leukemia = tested on: HL-60(TB) leukemia
EKVX NSCLC = tested on: EKVX NSCLC
SW-620 colon = tested on: SW-620 colon
UO-31 renal = tested on: UO-31 renal
DLD-1 colon = tested on: DLD-1 colon
SK-OV-3 ovarian = tested on: SK-OV-3 ovarian
SR leukemia = tested on: SR leukemia
CAKI-1 renal = tested on: CAKI-1 renal
NCI-H226 lung = tested on: NCI-H226 lung
HOP-18 NSCLC = tested on: HOP-18 NSCLC
IGROV1 ovarian = tested on: IGROV1 ovarian
HCT-116 colon = tested on: HCT-116 colon
SF-268 CNS = tested on: SF-268 CNS
SNB-75 CNS = tested on: SNB-75 CNS
SF-539 CNS = tested on: SF-539 CNS
UACC-62 melanoma = tested on: UACC-62 melanoma
OVCAR-5 ovarian = tested on: OVCAR-5 ovarian
786-0 renal = tested on: 786-0 renal
CCRF-CEM leukemia = tested on: CCRF-CEM leukemia
NCI-H522 lung = tested on: NCI-H522 lung
ACHN renal = tested on: ACHN renal
RXF 393 renal = tested on: RXF 393 renal
KM12 colon = tested on: KM12 colon
NCI-H460 lung = tested on: NCI-H460 lung
K-562 leukemia = tested on: K-562 leukemia

Measured: TGI

CCOC(=O)/C(C#N)=C(N)/C(=N\Nc1cccc(C(F)(F)F)c1)C(=O)OCC
> 100 µM: RPMI-8226 leukemia | TK-10 renal | LXFL 529 NSCLC | HCC-2998 colon | UACC-257 melanoma | OVCAR-8 ovarian | HOP-92 NSCLC | A549 NSCLC | M19-MEL melanoma | LOX IMVI melanoma | MOLT-4 leukemia | KM20L2 colon | NCI-H23 lung | SK-MEL-5 melanoma | OVCAR-3 ovarian | DMS 273 small cell lung | HT29 colon | MALME-3M melanoma | DMS 114 small cell lung | HCT-15 colon | SF-295 CNS | SNB-19 CNS | OVCAR-4 ovarian | SNB-78 CNS | COLO 205 colon | SN12C renal | A498 renal | SK-MEL-2 melanoma | HOP-62 NSCLC | SK-MEL-28 melanoma | M14 melanoma | U251 CNS | HL-60(TB) leukemia | EKVX NSCLC | SW-620 colon | UO-31 renal | DLD-1 colon | SK-OV-3 ovarian | SR leukemia | CAKI-1 renal | NCI-H226 lung | HOP-18 NSCLC | IGROV1 ovarian | HCT-116 colon | SF-268 CNS | SNB-75 CNS | SF-539 CNS | UACC-62 melanoma | OVCAR-5 ovarian | 786-0 renal | CCRF-CEM leukemia | NCI-H522 lung | ACHN renal

COc1cccc2c1[C@]1(O)C(O)CCCC21 (stereo partly specified)
> 100 µM: RPMI-8226 leukemia | TK-10 renal | LXFL 529 NSCLC | HCC-2998 colon | UACC-257 melanoma | OVCAR-8 ovarian | A549 NSCLC | M19-MEL melanoma | LOX IMVI melanoma | MOLT-4 leukemia | KM20L2 colon | NCI-H23 lung | SK-MEL-5 melanoma | OVCAR-3 ovarian | DMS 273 small cell lung | HT29 colon | MALME-3M melanoma | DMS 114 small cell lung | HCT-15 colon | SF-295 CNS | SNB-19 CNS | OVCAR-4 ovarian | RXF 393 renal | SNB-78 CNS | COLO 205 colon | SN12C renal | A498 renal | SK-MEL-2 melanoma | HOP-62 NSCLC | KM12 colon | SK-MEL-28 melanoma | NCI-H460 lung | M14 melanoma | U251 CNS | SW-620 colon | UO-31 renal | DLD-1 colon | SK-OV-3 ovarian | K-562 leukemia | CAKI-1 renal | NCI-H226 lung | HOP-18 NSCLC | IGROV1 ovarian | HCT-116 colon | SF-268 CNS | SNB-75 CNS | SF-539 CNS | UACC-62 melanoma | OVCAR-5 ovarian | 786-0 renal | CCRF-CEM leukemia | NCI-H522 lung | ACHN renal
